Measurements taken from PubChem BioAssay (NCI).
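Each compound was tested at five concentrations against cells in 96-well plates for 48 hours. TGI: total growth inhibition.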

Columns and labels:
Experiment in all cases: growth of human tumour cells (NCI), 48 h
[1] = tested on: 786-0 renal
[2] = tested on: A498 renal
[3] = tested on: ACHN renal
[4] = tested on: BT-549 breast
[5] = tested on: CAKI-1 renal
[6] = tested on: CCRF-CEM leukemia
[7] = tested on: COLO 205 colon
[8] = tested on: DU-145 prostate
[9] = tested on: EKVX NSCLC
[10] = tested on: HCC-2998 colon
[11] = tested on: HCT-116 colon
[12] = tested on: HCT-15 colon
[13] = tested on: HL-60(TB) leukemia
[14] = tested on: HOP-62 NSCLC
[15] = tested on: HOP-92 NSCLC
[16] = tested on: HS 578T breast
[17] = tested on: HT29 colon
[18] = tested on: IGROV1 ovarian
[19] = tested on: K-562 leukemia
[20] = tested on: KM12 colon
[21] = tested on: LOX IMVI melanoma
[22] = tested on: M14 melanoma
[23] = tested on: MALME-3M melanoma
[24] = tested on: MCF7 breast
[25] = tested on: MDA-MB-231 breast
[26] = tested on: MDA-MB-435
[27] = tested on: MDA-N
[28] = tested on: MOLT-4 leukemia
[29] = tested on: NCI-H226 lung
[30] = tested on: NCI-H23 lung
[31] = tested on: NCI-H460 lung
[32] = tested on: NCI-H522 lung
[33] = tested on: NCI/ADR-RES ovarian
[34] = tested on: OVCAR-3 ovarian
[35] = tested on: OVCAR-4 ovarian
[36] = tested on: OVCAR-5 ovarian
[37] = tested on: OVCAR-8 ovarian
[38] = tested on: PC-3 prostate
[39] = tested on: RPMI-8226 leukemia
[40] = tested on: RXF 393 renal
[41] = tested on: SF-268 CNS
[42] = tested on: SF-295 CNS
[43] = tested on: SF-539 CNS
[44] = tested on: SK-MEL-2 melanoma
[45] = tested on: SK-MEL-28 melanoma
[46] = tested on: SK-MEL-5 melanoma
[47] = tested on: SK-OV-3 ovarian
[48] = tested on: SN12C renal
[49] = tested on: SNB-19 CNS
[50] = tested on: SNB-75 CNS
[51] = tested on: SR leukemia
[52] = tested on: SW-620 colon
[53] = tested on: T-47D breast
[54] = tested on: TK-10 renal
[55] = tested on: UACC-257 melanoma
[56] = tested on: UACC-62 melanoma
[57] = tested on: UO-31 renal

Cc1ccnc2[nH]c3ccccc3c(=O)c12
TGI [1]: > 100 µM
TGI [2]: > 100 µM
TGI [3]: > 100 µM
TGI [4]: 86.7 µM
TGI [5]: 38.5 µM
TGI [6]: > 100 µM
TGI [7]: 59.1 µM
TGI [8]: > 100 µM
TGI [9]: 71.7 µM
TGI [10]: 65 µM
TGI [11]: > 100 µM
TGI [12]: > 100 µM
TGI [13]: 61.3 µM
TGI [14]: > 100 µM
TGI [15]: > 100 µM
TGI [16]: 48 µM
TGI [17]: 36 µM
TGI [18]: 49.5 µM
TGI [19]: > 100 µM
TGI [20]: 50.3 µM
TGI [21]: > 100 µM
TGI [22]: > 100 µM
TGI [23]: 43.1 µM
TGI [24]: > 100 µM
TGI [25]: > 100 µM
TGI [26]: 41.8 µM
TGI [27]: 47 µM
TGI [28]: 55.1 µM
TGI [29]: > 100 µM
TGI [30]: 90.6 µM
TGI [31]: 97.5 µM
TGI [32]: 32.9 µM
TGI [33]: > 100 µM
TGI [34]: 72.1 µM
TGI [35]: > 100 µM
TGI [36]: > 100 µM
TGI [37]: > 100 µM
TGI [38]: 81.6 µM
TGI [39]: 95.8 µM
TGI [40]: 41.8 µM
TGI [41]: 45.5 µM
TGI [42]: > 100 µM
TGI [43]: 46.6 µM
TGI [44]: 68.7 µM
TGI [45]: 47.5 µM
TGI [46]: 33.2 µM
TGI [47]: > 100 µM
TGI [48]: 52.4 µM
TGI [49]: > 100 µM
TGI [50]: 32.1 µM
TGI [51]: > 100 µM
TGI [52]: > 100 µM
TGI [53]: > 100 µM
TGI [54]: 36.3 µM
TGI [55]: > 100 µM
TGI [56]: 40 µM
TGI [57]: > 100 µM
